Source: patent US10011595B2 (Merck Sharp & Dohme Corp., priority 2014, dated 2018)

biological target: human orexin-2 receptor (Homo sapiens (Human), UniProt O43614); experiment: FLIPR Ca2+ Flux Assay, orexin-2 receptor; format: cell-based; conditions: CHO cells expressing the human orexin-2 receptor; agonist 70 pM Ala-6,12 orexin-A; read-out: hOX2R FLIPR IC50
Protocol: In a typical experiment the OX1 and OX2 receptor antagonistic activity of the compounds of the present invention was determined in accordance with the following experimental method. For intracellular calcium measurements, Chinese hamster ovary (CHO) cells expressing the rat orexin-1 receptor or the human orexin-2 receptor, are grown in Iscove's modified DMEM containing 2 mM L-glutamine, […], 1% hypoxanthine-thymidine supplement, 100 U/ml penicillin, 100 μg/ml streptomycin and 10% heat-inactivated fetal calf serum (FCS). The cells are seeded at 20,000 cells/well into Becton-Dickinson black 384-well clear bottom sterile plates coated with poly-D-lysine. All reagents were from GIBCO-Invitrogen Corp. The seeded plates are incubated overnight at 37° C. and 5% CO2. Ala-6,12 human orexin-A as the agonist is prepared as a 1 mM stock solution in 1% bovine serum albumin (BSA) and diluted in assay buffer (HBSS containing 20 mM HEPES, 0.1% BSA and 2.5 mM probenecid, pH7.4) for use in the assay at a final concentration of 70 pM. Test compounds are prepared as 10 mM stock solution in DMSO, then diluted in 384-well plates, first in DMSO, then assay buffer. On the day of the assay, cells are washed 3 times with 100 μl assay buffer and then incubated for 60 min (37° C., 5% CO2) in 60 μl assay buffer containing 1 μM Fluo-4AM ester, 0.02% pluronic acid, and 1% BSA. The dye loading solution is then aspirated and cells are washed 3 times with 100 μl assay buffer. 30 μl of that same buffer is left in each well. Within the Fluorescent Imaging Plate Reader (FLIPR, Molecular Devices), test compounds are added to the plate in a volume of 25 μl, incubated for 5 min and finally 25 μl of agonist is added. Fluorescence is measured for each well at 1 second intervals for 5 minutes and the height of each fluorescence peak is compared to the height of the fluorescence peak induced by 70 pM Ala-6,12 orexin-A with buffer in place of antagonist. For each antagonist, IC50 value (the concentration of compound needed to inhibit 50% of the agonist response) is determined. Alternatively, compound potency can be assessed by a radioligand binding assay (described in Bergman et. al. Bioorg. Med. Chem. Lett. 2008, 18, 1425-1430) in which the inhibition constant (Ki) is determined in membranes prepared from CHO cells expressing either the OX1 or OX2 receptor. The intrinsic orexin receptor antagonist activity of a compound which may be used in the present invention may be determined by these assays.

human orexin-2 receptor, sequence (O43614 whole entry): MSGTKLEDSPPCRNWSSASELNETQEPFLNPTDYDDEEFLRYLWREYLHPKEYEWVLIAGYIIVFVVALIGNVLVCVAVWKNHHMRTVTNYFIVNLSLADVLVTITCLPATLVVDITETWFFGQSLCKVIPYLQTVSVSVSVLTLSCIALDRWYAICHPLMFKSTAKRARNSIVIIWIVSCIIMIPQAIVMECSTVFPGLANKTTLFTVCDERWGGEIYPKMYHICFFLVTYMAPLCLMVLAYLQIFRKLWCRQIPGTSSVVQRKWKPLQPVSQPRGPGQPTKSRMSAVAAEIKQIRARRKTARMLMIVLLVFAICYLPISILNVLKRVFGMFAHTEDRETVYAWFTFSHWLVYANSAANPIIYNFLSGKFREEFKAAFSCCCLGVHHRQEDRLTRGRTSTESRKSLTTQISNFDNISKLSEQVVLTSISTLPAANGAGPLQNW

SMILES	IC50
CCN(CCN(C)c1nccc(C#N)n1)C(=O)c1ccccc1-n1nccn1 [Example E-10, N-{2-[(4-cyanopyrimidin-2-yl)(methyl)amino]ethyl}-N-ethyl-2-(2H-1,2,3-triazol-2-yl)benzamide]	244 nM
CCN(CCN(C)c1nccc(C(C)(C)O)n1)C(=O)c1ccccc1CC(F)F [Example H-24, 2-(2,2-difluoroethyl)-N-ethyl-N-(2-((4-(2-hydroxypropan-2-yl)pyrimidin-2-yl)(methyl)amino)ethyl) benzamide]	20.6 nM
CCN(CCN(C)c1nc(C)cc(C)n1)C(=O)c1ccccc1CC(F)F [Example B-23, 2-(2,2-difluoroethyl)-N-{2-[(4,6-dimethylpyrimidin-2-yl)(methyl)amino]ethyl}-N-ethylbenzamide]	94.9 nM
CCN(CCN(C)c1cc(C#N)ccn1)C(=O)c1ccccc1C1(C#N)CC1 [Example F-26, 2-(1-cyanocyclopropyl)-N-{2-[(4-cyanopyridin-2-yl)(methyl)amino]ethyl}-N-ethylbenzamide]	18.9 nM
CCN(CCN(C)c1nc(C)cc(C)n1)C(=O)c1ccccc1CC(F)(F)F [Example B-18, N-{2-[(4,6-dimethylpyrimidin-2-yl)(methyl)amino]ethyl}-N-ethyl-2-(2,2,2-trifluoroethyl)benzamide]	36.2 nM
CCN(CCN(C)c1nccc(C(C)(C)O)n1)C(=O)c1ccccc1C1CC1 [Example H-25, 2-cyclopropyl-N-ethyl-N-(2-((4-(2-hydroxypropan-2-yl)pyrimidin-2-yl)(methyl)amino)ethyl) benzamide]	9.1 nM
CCN(CCN(C)c1nc(C)cc(C)n1)C(=O)c1ccc(F)cc1-n1nccn1 [Example B-12, N-(2-((4,6-dimethylpyrimidin-2-yl)(methyl)amino)ethyl)-N-ethyl-4-fluoro-2-(2H-1,2,3-triazol-2-yl)benzamide]	12.6 nM
CCOc1ccccc1C(=O)N(CC)CCN(C)c1nc(C)cc(C)n1 [Example B-13, N-(2-((4,6-dimethylpyrimidin-2-yl)(methyl)amino)ethyl)-2-ethoxy-N-ethylbenzamide]	16 nM
CCN(CCN(C)c1cc(C#N)ccn1)C(=O)c1c(F)cccc1-n1nccn1 [Example F-15, N-{2-[(4-cyanopyridin-2-yl)(methyl)amino]ethyl}-N-ethyl-2-fluoro-6-(2H-1,2,3-triazol-2-yl)benzamide]	33.9 nM
CN(CCN(Cc1ccccc1)C(=O)c1ccccc1-n1nccn1)c1cc(C#N)ccn1 [Example G-6, N-benzyl-N-(2-((4-cyanopyridin-2-yl)(methyl)amino)ethyl)-2-(2H-1,2,3-triazol-2-yl)benzamide]	112 nM
CCN(CCN(C)c1cc(C#N)ccn1)C(=O)c1c(F)cccc1-n1ccnn1 [Example F-17, N-{2-[(4-cyanopyridin-2-yl)(methyl)amino]ethyl}-N-ethyl-2-fluoro-6-(1H-1,2,3-triazol-1-yl)benzamide]	945 nM
CCN(CCN(C)c1cc(C#N)ccn1)C(=O)c1ccc(OCC(F)(F)F)nc1 [Example F-31, N-{2-[(4-cyanopyridin-2-yl)(methyl)amino]ethyl}-N-ethyl-6-(2,2,2-trifluoroethoxy)pyridine-3-carboxamide]	10000 nM
CCN(CCN(C)c1cc(C#N)ccn1)C(=O)c1ccccc1COC [Example F-16, N-{2-[(4-cyanopyridin-2-yl)(methyl)amino]ethyl}-N-ethyl-2-(methoxymethyl)benzamide]	688 nM
CCN(CCN(C)c1nc(C)cc(C)n1)C(=O)c1ncccc1-c1ccccc1 [Example B-27, N-{2-[(4,6-dimethylpyrimidin-2-yl)(methyl)amino]ethyl}-N-ethyl-3-phenylpyridine-2-carboxamide]	12.5 nM
CCN(CCN(C)c1nc(OC)cc(OC)n1)C(=O)c1ccccc1-n1nccn1 [Example E-9, N-{2-[(4,6-dimethoxypyrimidin-2-yl)(methyl)amino]ethyl}-N-ethyl-2-(2H-1,2,3-triazol-2-yl)benzamide]	341 nM
CCN(CCN(C)c1nc(C)cc(C)n1)C(=O)c1ccccc1OC(F)F [Example B-8, 2-(difluoromethoxy)-N-(2-((4,6-dimethylpyrimidin-2-yl)(methyl)amino)ethyl)-N-ethylbenzamide]	18.5 nM
CCN(CCN(C)c1cc(C#N)ccn1)C(=O)c1ccccc1-c1nnn[nH]1 [Example F-5, N-{2-[(4-cyanopyridin-2-yl)(methyl)amino]ethyl}-N-ethyl-2-(1H-tetrazol-5-yl)benzamide]	10000 nM
CCCc1ccccc1C(=O)N(CC)CCN(C)c1nccc(C(C)(C)O)n1 [Example H-19, N-ethyl-N-(2-((4-(2-hydroxypropan-2-yl)pyrimidin-2-yl)(methyl)amino)ethyl)-2-propylbenzamide]	13.1 nM
CCN(CCN(C)c1nc(C)cc(C)n1)C(=O)c1cccnc1OCC(F)F [Example B-10, 2-(2,2-difluoroethoxy)-N-(2-((4,6-dimethylpyrimidin-2-yl)(methyl)amino)ethyl)-N-ethylnicotinamide]	40.6 nM
CCN(CCN(C)c1cccc(C(C)(C)O)n1)C(=O)c1ncccc1-c1ccccc1 [Example I-22, N-ethyl-N-(2-((6-(2-hydroxypropan-2-yl)pyridin-2-yl)(methyl)amino)ethyl)-3-phenylpicolinamide]	211 nM
CCN(CCN(C)c1nccc(C(C)(C)O)n1)C(=O)c1ccccc1C1CC1(F)F (stereo not shown) [Example H-26, 2-(2,2-difluorocyclopropyl)-N-ethyl-N-(2-((4-(2-hydroxypropan-2-yl)pyrimidin-2-yl)(methyl)amino)ethyl) benzamide]	16.9 nM
CCN(CCN(C)c1nc(C)cc(C)n1)C(=O)c1nccnc1N1CCCC1 [Example B-25, N-{2-[(4,6-dimethylpyrimidin-2-yl)(methyl)amino]ethyl}-N-ethyl-3-pyrrolidin-1-ylpyrazine-2-carboxamide]	324 nM
CCN(CCN(C)c1cc(C#N)ccn1)C(=O)c1ccccc1-n1nccn1 [Example E-1, N-(2-((4-cyanopyridin-2-yl)(methyl)amino)ethyl)-N-ethyl-2-(2H-1,2,3-triazol-2-yl)benzamide]	14.5 nM
CCN(CCN(C)c1cc(C#N)ccn1)C(=O)c1ccccc1-c1nc(C)no1 [Example F-27, N-{2-[(4-cyanopyridin-2-yl)(methyl)amino]ethyl}-N-ethyl-2-(3-methyl-1,2,4-oxadiazol-5-yl)benzamide]	24 nM
CCCN(CCN(C)c1cc(C#N)ccn1)C(=O)c1ccccc1-n1nccn1 [Example G-4, N-(2-((4-cyanopyridin-2-yl)(methyl)amino)ethyl)-N-propyl-2-(2H-1,2,3-triazol-2-yl)benzamide]	12.1 nM
CCN(CCN(C)c1cc(C#N)ccn1)C(=O)c1ccccc1-c1cnccn1 [Example F-11, N-{2-[(4-cyanopyridin-2-yl)(methyl)amino]ethyl}-N-ethyl-2-pyrazin-2-ylbenzamide]	23 nM
CCN(CCN(C)c1nc(C)cc(C)n1)C(=O)c1ccccc1-n1ncnn1 [Example B-31, N-{2-[(4,6-dimethylpyrimidin-2-yl)(methyl)amino]ethyl}-N-ethyl-2-(2H-tetrazol-2-yl)benzamide]	8.8 nM
CCN(CCN(C)c1nccc(C(C)(C)O)n1)C(=O)c1cccnc1-n1cccn1 [Example H-33, N-ethyl-N-[2-[[4-(1-hydroxy-1-methyl-ethyl)pyrimidin-2-yl]-methyl-amino]ethyl]-2-pyrazol-1-yl-pyridine-3-carboxamide]	37 nM
